Measurements as given in patent US4076830A, “Alkylmethanodibenzocycloheptapyrroles” (E. I. Du Pont de Nemours and Company, priority 1976, dated 1978).
Counter-ions that a name gives are not always drawn. Like-named read-outs stand apart in the source and are kept apart here.

Tests used:
[1] = tested on: phenylquinone-induced writhing; assay: analgesic activity: prevention of phenylquinone-induced writhing in mice; type: in vivo, mouse (Carworth CF1 S female mice); details: oral, phenylquinone 1.1 mg/kg intraperitoneally
Excerpt: This mouse test is predictive of analgesic response in humans. [E. Siegmund, R. Cadmus and G. Lee, Proc. Soc.
ED50 values were obtained graphically from the data.

female white mice = assay: general tranquilizer activity in mice (exploratory loss, ptosis, catatonia, muscle tone, grip and lift reflexes, pinna twitch reflex, tremors, death); details: for ED50: Mus musculus, po
Protocol: (§1) Groups of five Carworth CF1 S female mice, 16-20 g each, were fasted 16-22 hours before use. The mice were put in opaque plastic "shoe-box" cages 15-30 min. before injection, and then treated orally with 4, 12, 36, 108 and 324 mg/kg of the compound to be tested […] in 1% aqueous distilled water solution of methylcellulose (Methocel®). Each dose was given in a standard volume of 0.45 ml. Observations were made at 0.5, 2 and 24 hours after dosing. ED50 values were calculated for each parameter including death (LD50). The ED50 and LD50 values are the doses at which 50% of the animals would be expected to respond.
(§2) Exploratory Activity - The mouse is placed on a stainless steel wire mesh screen (8 inches × 12 inches, 3 mesh per inch, 174 inch mesh openings) "shoe-box" lid (1 inch high) and is observed for normal activities, such as nose movements, head movements with apparent visual examination of the area, and/or walking around on the screen. Absence of or marked depression of these activities for 5 seconds constitutes loss of exploratory activity.
(§3) Ptosis - The mouse is picked up by the tail and placed on the screen with its head facing the observer. Bilateral eyelid closure of 50% or more two seconds after placement is considered ptosis.
(§4) Catatonia - The mouse is placed with its front paws on the edge of a stainless steel "shoe-box" cover, 1 inch high, covered with adhesive tape. Failure to remove both paws from the cover's edge within 5 seconds constitutes catatonia.
(§5) Muscle Tone - The observer gently strokes the abdominal musculature of the mouse with thumb and forefinger. Flaccidity (or rarely, tenseness) is recorded.
(§6) Grip and Lift Reflexes - The mouse is gently swung by the tail toward a horizontal 12 gauge wire tautly stretched 25 cm above the bench. After the mouse grasps the wire with its forepaws, its posterior end is held directly below the wire. A normal mouse grasps the wire with its forepaws and immediately lifts its hind limbs to the wire. Failure to grasp the wire with the forepaws in both trials constitutes loss of the grip reflex; failure to lift the hind limbs to grasp the wire with at least one hind paw within 5 seconds constitutes loss of the lift reflex.
(§7) Pinna Twitch Reflex - The mouse is placed on the bar 10-20 cm horizontally and 9 cm vertically from a Galton whistle adjusted for 13 kc (5 mm on the whistle scale) and is subjected to several short bursts of sound.
(§8) The ED50 values, i.e., the dose which caused the response in 50% of the mice, are tabulated.

[2] = as above; details: mouse, in vivo, po
Protocol: as §1, §2, §3, §4, §5, §6, §7, §8

[3] = read-out: ED50 Catatonia, oral, mice, observed at 0.5, 2 and 24 hours
[4] = read-out: ED50 Exploratory Loss Visual, oral, mice, observed at 0.5, 2 and 24 hours
[5] = read-out: ED50 Muscle Tone, oral, mice, observed at 0.5, 2 and 24 hours
[6] = read-out: ED50 Ptosis, oral, mice, observed at 0.5, 2 and 24 hours
[7] = read-out: ED50 Reflexes Grip, oral, mice, observed at 0.5, 2 and 24 hours
[8] = read-out: ED50 Reflexes Lift, oral, mice, observed at 0.5, 2 and 24 hours
[9] = read-out: ED50 Reflexes Pinna, oral, mice, observed at 0.5, 2 and 24 hours
[10] = read-out: ED50 Tremors, oral, mice, observed at 0.5, 2 and 24 hours
[11] = oral, mice, observed at 0.5, 2 and 24 hours
[12] = oral, mice, observed at 0.5, 2 and 24 hours, hydrochloride

SMILES | Phenylquinone Analgesia (activity in words) [1] | ED50 (female white mice; [3]) [mg/kg] | ED50 (female white mice; [4]) [mg/kg] | ED50 (female white mice; [5]) [mg/kg] | ED50 (female white mice; [6]) [mg/kg] | ED50 (female white mice; [7]) [mg/kg] | ED50 (female white mice; [8]) [mg/kg] | ED50 (female white mice; [9]) [mg/kg] | ED50 (female white mice; [10]) [mg/kg] | LD50 at 24 h [2] [mg/kg] | LD50 (female white mice; 24-hour value, oral, mice) [mg/kg] | ED50 Muscle Tone (female white mice; [11]) [mg/kg] | ED50 Reflexes Grip (female white mice; [11]) [mg/kg] | ED50 Tremors (female white mice; [11]) [mg/kg] | ED50 Catatonia (female white mice; [12]) [mg/kg] | ED50 Exploratory Loss Visual (female white mice; [12]) [mg/kg] | ED50 Ptosis (female white mice; [12]) [mg/kg] | ED50 Reflexes Lift (female white mice; [12]) [mg/kg] | ED50 Reflexes Pinna (female white mice; [12]) [mg/kg] | ED50 ([1]; Mus musculus, dose blocking writhing in 50% of mice, read-out: ED50 Phenylquinone Analgesia) [mg/kg]
CC1[C@@H]2c3ccccc3[C@@H]3C[C@@]2(CN1CC1CCCC1)c1ccccc13 (stereo partly drawn) [Example 3g, 2-cyclopentylmethyl-1-methyl-trans-2,3,8,12b-tetrahydro-1H-3a,8-methanodibenzo[3,4:6,7]cyclohepta[1,2-c]pyrrole, hydrochloride] | Active | 20 | 7 | 20 | 12 | > 324 | 36 | 20 | > 324 | > 324 | – | – | – | – | – | – | – | – | – | –
CC1[C@@H]2c3ccccc3[C@@H]3C[C@@]2(CN1CC1CCCC1)c1ccccc13 (stereo partly drawn) [Example 3h, 2-cyclopentylmethyl-1-methyl-trans-2,3,8,12b-tetrahydro-1H-3a,8-methanodibenzo[3,4:6,7]-cyclohepta[1,2-c]pyrrole hydrochloride] | – | – | – | – | – | – | – | – | – | – | > 324 | 20 | > 324 | > 324 | 12 | < 4 | 20 | 20 | 12 | –
C[C@]12C[C@@]3(CN(CC4CCCCC4)C[C@@H]3c3ccccc31)c1ccccc12 (relative stereo) [Example 1, 2-Cyclohexylmethyl-8-methyl-trans-2,3,8,12b-tetra-hydro-1H-3a,8-methanodibenzo[3,4:6,7]cyclohepta[1,2-c]-pyrrole Hydrochloride] | – | 109 | 87 | 109 | 87 | > 324 | 97 | 109 | > 324 | > 324 | – | – | – | – | – | – | – | – | – | 30
CN1C[C@@H]2c3ccccc3[C@]3(C)C[C@@]2(C1)c1ccccc13 (relative stereo) [Example 2, 2,8-Dimethyl-trans-2,3,8,12b-tetrahydro-1H-3a,8-methanodibenzo[3,4:6,7]cyclohepta[1,2-c]pyrrole Hydrochloride] | Active | 60 | 60 | 36 | 60 | 60 | 60 | 60 | 60 | 300 | – | – | – | – | – | – | – | – | – | –
CN1C(=O)CN=C(c2ccccc2)c2cc(Cl)ccc21 [Diazepam, reference compound] | – | 59 | 87 | 89 | 79 | 78 | 4.4 | 63 | > 324 | – | – | – | – | – | – | – | – | – | – | –
CN(C)CCCN1c2ccccc2Sc2ccc(Cl)cc21 [Chlorpromazine, reference compound] | – | 8 | 7 | 8 | 7 | 240 | 8 | 5 | > 324 | 850 | – | – | – | – | – | – | – | – | – | –
